Measured values from ChEMBL document CHEMBL1201861, “Genomics of Drug Sensitity in Cancer screening data, Wellcome Trust Sanger Institute”.

How the values were obtained:
Experiment in all cases: cells
Details in all cases: Homo sapiens
COLO-824 = format: functional, cell-based
CP66-MEL = format: functional, cell-based;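 further: growth inhibition of CP66-MEL cells determined in a cell viability assay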
CTV-1 = format: functional, cell-based;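 further: growth inhibition of the cell line, read out with a cell viability assay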
CW-2 = format: functional, cell-based;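 further: growth inhibition of CW-2 cells, read out by a cell viability assay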
D283 Med = format: functional, cell-based
DB = format: functional, cell-based
DEL = format: functional, cell-based;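 further: growth inhibition of the human DEL cell line, read out with a cell viability assay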
DMS-79 = format: functional, cell-based;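 further: growth inhibition measured with a cell viability assay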
GAK = format: functional, cell-based
GI-ME-N = format: functional, cell-based;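 further: growth inhibition of human GI-ME-N cells, read out with a cell viability assay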
HEL = format: functional, cell-based;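 further: growth inhibition of HEL cells, read out with a cell viability assay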
HH = format: functional, cell-based
KALS-1 = format: functional, cell-based;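 further: growth inhibition of KALS-1 cells, determined with a cell viability assay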
KINGS-1 = format: functional, cell-based;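 further: cell viability assay measuring suppression of KINGS-1 cell growth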
KLE = format: functional, cell-based;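 further: growth inhibition of human KLE cells, read out with a cell viability assay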
KNS-42 = format: functional, cell-based;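 further: growth inhibition of KNS-42 cells, read out with a cell viability assay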
KP-N-YS = format: functional, cell-based;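 further: cell viability assay measuring inhibition of cell line growth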
KU812 cell line = format: functional, cell-based;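 further: growth inhibition of KU812 cells, read out with a cell viability assay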
KURAMOCHI = format: functional, cell-based;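 further: growth inhibition of KURAMOCHI cells, read out with a cell viability assay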
LC-2-ad = format: functional, cell-based;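 further: growth inhibition of human LC-2-ad cells, read out with a cell viability assay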
LOX IMVI = format: functional, cell-based
LU-139 = format: functional, cell-based
Lu-65 = format: functional, cell-based;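 further: growth inhibition of Lu-65 cancer cells, read out by a cell viability assay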
MEG-01 = format: functional, cell-based;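 further: growth inhibition of MEG-01 cells, read out by a cell viability assay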
MFM-223 = format: functional, cell-based
MN-60 = format: functional, cell-based;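 further: growth inhibition of the MN-60 cell line, determined with a cell viability assay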
MPP-89 = format: functional, cell-based;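 further: growth inhibition of human MPP-89 cells, read out with a cell viability assay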
MS-1 = format: functional, cell-based;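 further: growth inhibition of MS-1 cells, read out by cell viability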
MSTO-211H = format: functional, cell-based
MZ1-PC = format: functional, cell-based;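 further: cell viability assay measuring growth inhibition of human MZ1-PC cells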
Mo = format: functional, cell-based
NB10 = format: functional, cell-based;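 further: growth inhibition of NB10 cells, read out by a cell viability assay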
NB5 = format: functional, cell-based;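 further: growth inhibition of NB5 cells, read out as cell viability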
NCI-H1092 = format: functional, cell-based;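 further: cell growth inhibition measured with a cell viability assay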
NCI-H1648 = format: functional, cell-based;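 further: cell viability assay measuring inhibition of NCI-H1648 cell growth, from the Sanger screening data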
NCI-H1770 = format: functional, cell-based;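 further: growth inhibition of NCI-H1770 cells determined with a viability readout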
NCI-H226 = format: functional, cell-based;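 further: cell viability read-out used to gauge growth inhibition of the cells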
NCI-H23 = format: functional, cell-based;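 further: cell viability assay measuring growth inhibition of NCI-H23 cells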
NCI-H510A = format: functional, cell-based;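 further: growth inhibition of NCI-H510A cells, read out with a cell viability assay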
SNU1 = format: functional, cell-based;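 further: growth inhibition of human NCI-SNU-1 cells, measured with a cell viability assay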
NEC8 = format: functional, cell-based;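 further: growth inhibition of human NEC8 cells, read out by a cell viability assay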
NH-12 = format: functional, cell-based;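 further: growth inhibition of NH-12 cells, read out with a cell viability assay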
NOS-1 = format: functional, cell-based;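 further: growth inhibition of the human NOS-1 cell line, read out with a cell viability assay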
NTERA-2-cl-D1 = format: functional, cell-based;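 further: inhibition of cell growth, measured with a cell viability assay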
OCUB-M = format: functional, cell-based;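 further: growth inhibition of the cancer cell line, read out through a cell viability assay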
RH-1 = format: functional, cell-based;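 further: growth inhibition of human RH-1 cells, read out with a cell viability assay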
SCC-15 = format: functional, cell-based;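 further: growth inhibition of SCC-15 cells, read out with a cell viability assay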
SNB-75 = format: functional, cell-based;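 further: cell viability assay measuring growth inhibition of human SNB-75 cells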
SW684 = format: functional, cell-based;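 further: growth inhibition of human SW684 cells, measured by a cell viability assay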
SW 954 = format: functional, cell-based;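 further: growth inhibition of SW954 human cancer cells, read out as cell viability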
SW982 = format: functional, cell-based;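 further: growth inhibition of SW982 cells, read out with a cell viability assay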
TE-1 = format: functional, cell-based
8-MG-BA = format: functional, cell-based;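 further: growth inhibition of 8-MG-BA cells, read out with a cell viability assay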
ALL-PO = format: functional, cell-based;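 further: growth inhibition of ALL-PO cells, read out by a cell viability assay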
AM-38 = format: functional, cell-based;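 further: growth inhibition of AM-38 cells of human origin, read out by a cell viability assay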
TE-11 = format: functional, cell-based;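 further: growth inhibition of human TE-11 cells, read out by a cell viability assay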
TE-12 = format: functional, cell-based;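 further: growth inhibition of TE-12 cells, read out by a cell viability assay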
TE-9 = format: functional, cell-based;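 further: cell growth inhibition, measured with a cell viability readout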
TK-10 = format: functional, cell-based;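 further: growth inhibition of TK-10 cells, read out in a cell viability assay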
U-266 = format: functional, cell-based
U-87 MG = format: functional, cell-based, U-87MG ATCC;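 further: growth inhibition of the cells measured with a viability assay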
UACC-257 = format: functional, cell-based
no-11 = format: functional, cell-based
CAS-1 = format: functional, cell-based
CGTH-W-1 = format: functional, cell-based
COLO-684 = format: functional, cell-based

Cc1[nH]c(/C=C2\C(=O)Nc3ccc(S(=O)(=O)Cc4c(Cl)cccc4Cl)cc32)c(C)c1C(=O)N1CCC[C@@H]1CN1CCCC1 [PHA-665752]
IC50 (COLO-824): > 2000 nM | IC50 (CP66-MEL): > 2000 nM | IC50 (CTV-1): > 2000 nM | IC50 (CW-2): > 2000 nM | IC50 (D283 Med): > 2000 nM | IC50 (DB): > 2000 nM | IC50 (DEL): > 2000 nM | IC50 (DMS-79): > 2000 nM | IC50 (GAK): […] | IC50 (GI-ME-N): > 2000 nM | IC50 (HEL): > 2000 nM | IC50 (HH): > 2000 nM | IC50 (KALS-1): > 2000 nM | IC50 (KINGS-1): 359 nM | IC50 (KLE): > 2000 nM | IC50 (KNS-42): > 2000 nM | IC50 (KP-N-YS): > 2000 nM | IC50 (KU812 cell line): > 2000 nM | IC50 (KURAMOCHI): > 2000 nM | IC50 (LC-2-ad): > 2000 nM | IC50 (LOX IMVI): > 2000 nM | IC50 (LU-139): > 2000 nM | IC50 (Lu-65): > 2000 nM | IC50 (MEG-01): > 2000 nM | IC50 (MFM-223): > 2000 nM | IC50 (MN-60): > 2000 nM | IC50 (MPP-89): > 2000 nM | IC50 (MS-1): > 2000 nM | IC50 (MSTO-211H): > 2000 nM | IC50 (MZ1-PC): > 2000 nM | IC50 (Mo): > 2000 nM | IC50 (NB10): > 2000 nM | IC50 (NB5): > 2000 nM | IC50 (NCI-H1092): > 2000 nM | IC50 (NCI-H1648): > 2000 nM | IC50 (NCI-H1770): > 2000 nM | IC50 (NCI-H226): > 2000 nM | IC50 (NCI-H23): > 2000 nM | IC50 (NCI-H510A): > 2000 nM | IC50 (SNU1): > 2000 nM | IC50 (NEC8): > 2000 nM | IC50 (NH-12): > 2000 nM | IC50 (NOS-1): > 2000 nM | IC50 (NTERA-2-cl-D1): > 2000 nM | IC50 (OCUB-M): > 2000 nM | IC50 (RH-1): > 2000 nM | IC50 (SCC-15): > 2000 nM | IC50 (SNB-75): > 2000 nM | IC50 (SW684): > 2000 nM | IC50 (SW 954): > 2000 nM | IC50 (SW982): > 2000 nM | IC50 (TE-1): > 2000 nM | IC50 (8-MG-BA): > 2000 nM | IC50 (ALL-PO): 813 nM | IC50 (AM-38): > 2000 nM | IC50 (TE-11): > 2000 nM | IC50 (TE-12): > 2000 nM | IC50 (TE-9): > 2000 nM | IC50 (TK-10): > 2000 nM | IC50 (U-266): > 2000 nM | IC50 (U-87 MG): > 2000 nM | IC50 (UACC-257): > 2000 nM | IC50 (no-11): > 2000 nM | IC50 (CAS-1): > 2000 nM | IC50 (CGTH-W-1): > 2000 nM | IC50 (COLO-684): > 2000 nM

CC(C)=CC[C@@H](O)C1=CC(=O)c2c(O)ccc(O)c2C1=O [SHIKONIN]
IC50 (COLO-824): 715 nM | IC50 (CP66-MEL): 2400 nM | IC50 (CTV-1): > 16000 nM | IC50 (CW-2): > 16000 nM | IC50 (D283 Med): 835 nM | IC50 (DB): 726 nM | IC50 (DEL): 154 nM | IC50 (DMS-79): > 16000 nM | IC50 (GAK): 1040 nM | IC50 (GI-ME-N): 552 nM | IC50 (HEL): 2040 nM | IC50 (HH): 1120 nM | IC50 (KALS-1): 1320 nM | IC50 (KINGS-1): 14100 nM | IC50 (KLE): 685 nM | IC50 (KNS-42): > 16000 nM | IC50 (KP-N-YS): 352 nM | IC50 (KU812 cell line): < 62.5 nM | IC50 (KURAMOCHI): 3160 nM | IC50 (LC-2-ad): 953 nM | IC50 (LOX IMVI): 412 nM | IC50 (LU-139): 6260 nM | IC50 (Lu-65): > 16000 nM | IC50 (MEG-01): 451 nM | IC50 (MFM-223): 899 nM | IC50 (MN-60): 348 nM | IC50 (MPP-89): 857 nM | IC50 (MS-1): 1770 nM | IC50 (MSTO-211H): > 16000 nM | IC50 (MZ1-PC): 19.3 nM | IC50 (Mo): 820 nM | IC50 (NB10): 1340 nM | IC50 (NB5): 2430 nM | IC50 (NCI-H1092): 1390 nM | IC50 (NCI-H1648): 11100 nM | IC50 (NCI-H1770): 243 nM | IC50 (NCI-H226): 645 nM | IC50 (NCI-H23): > 16000 nM | IC50 (NCI-H510A): > 16000 nM | IC50 (SNU1): 1600 nM | IC50 (NEC8): 840 nM | IC50 (NH-12): 850 nM | IC50 (NOS-1): > 16000 nM | IC50 (NTERA-2-cl-D1): 144 nM | IC50 (OCUB-M): 865 nM | IC50 (RH-1): 720 nM | IC50 (SCC-15): 650 nM | IC50 (SNB-75): 746 nM | IC50 (SW684): 777 nM | IC50 (SW 954): 467 nM | IC50 (SW982): 60.2 nM | IC50 (TE-1): 15800 nM | IC50 (8-MG-BA): 85.6 nM | IC50 (ALL-PO): 315 nM | IC50 (AM-38): 96.3 nM | IC50 (TE-11): 4010 nM | IC50 (TE-12): 2340 nM | IC50 (TE-9): 408 nM | IC50 (TK-10): 1220 nM | IC50 (U-266): 675 nM | IC50 (U-87 MG): 1280 nM | IC50 (UACC-257): > 16000 nM | IC50 (no-11): 805 nM | IC50 (CAS-1): 462 nM | IC50 (CGTH-W-1): 500 nM | IC50 (COLO-684): 401 nM
